In patent publication US10869863B2, “Multi-arm polymeric targeting anti-cancer conjugate” (priority 2016, dated 2020):

Assays:
[1] = test system: human colon cancer HT-29 transplanted tumor; assay: Inhibitory effect on in vivo tumor growth, human colon cancer HT-29 transplanted tumor model in nude mice; conditions: HT-29 in female BALB/c nude mice; 40 mg·kg^−1 (as content of active agent) IV Q4D×3; experiment ended after 21 days; n=5
Experimental: HT-29 cells in logarithmic phase of growth were collected. […] Cell suspension was aspirated with a 1 mL syringe, and injected subcutaneously to the anterior right armpit of nude mice. Each animal was inoculated with 100 μL (6×10^6 cells/animal), and the HT-29 transplated tumor model in nude mice was established. Animal status and the condition of tumor growth were observed regularly after inoculation, an electronic vernier caliper was used to measure the tumor diameters, the data was directly input to an Excel spreadsheet, and the tumor volumes were calculated. […] The tumor diameters were measured twice a week after the initiation of the experiment, the tumor volumes were calculated, and the body weights of the animals were weighed and recorded at the same time.
The calculation formula of the tumor volume (TV) was as follows: TV(mm^3)=l×w^2/2
(§1) The first administration was initiated on the day of grouping, the experiment was ended after 21 days, and the volumes of administration were all 10 mL·kg^−1. […]
On the last day of the experiment, the animals were euthanized (CO2) after the body weights were weighed and the tumor diameters were measured. The tumor tissues were excised, weighed and photographed (respectively photographed according to the following combinations), and the tumor weight inhibition rates were calculated. […]

[2] = test system: human breast cancer MDA-MB-231 transplanted tumor; assay: Inhibitory effect in human breast cancer MDA-MB-231 xenograft model in nude mice; format: in vivo; conditions: MDA-MB-231 in female BALB/c nude mice; 40 mg·kg^−1 IV Q4D×3; 3 weeks; n=5
Experimental: MDA-MB-231 cells were cultured in DMEM, which contained 10% fetal bovine serum FBS (GIBCO, USA). The cells were placed in a 37° C. incubator containing 5% CO2 to cultivate.
A subcutaneous tumor xenograft model in nude mice was established by cell inoculation method: tumor cells in logarithmic phase of growth were collected, counted and then resuspended in 1×PBS, and the concentration of the cell suspension was adjusted to 1×10^7/mL. 1 mL syringes (4 gauge needle) were used to inoculate the tumor cells to the right back of the nude mice subcutaneously, 1×10^6/0.1 mL/mice. […]
(§2) The experimental period lasted for 3 weeks, and the body weights and the tumor sizes of the animals were measured twice a week during the experiment. The clinical symptoms were observed and recorded daily. On the last day of the experiment, the animals were sacrificed, the body weights were weighed, and the tumors were excised, weighed and recorded by photographing.
(§3) The calculation formula of the tumor volume (TV) was: TV=a×b^2/2, wherein a and b represented the measured length and width of the tumor, respectively. The calculation formula of the relative tumor volume (RTV) was: RTV=Vt/V0, wherein V0 was the tumor volume measured at the time of grouping and first administration, and Vt was the tumor volume at the time of a measurement.

[3] = test system: human pancreatic cancer MIA Paca-2 transplanted tumor; assay: Inhibitory effect in human pancreatic cancer MIA Paca-2 xenograft model in nude mice; format: in vivo; conditions: MIA Paca-2 in female BALB/c-nu/nu nude mice; 40 mg·kg^−1 IV Q4D×3; 3 weeks; n=5
Experimental: The cells were placed in a 37° C. incubator containing 5% CO2 to cultivate.
A subcutaneous tumor xenograft model in nude mice was established by cell inoculation method: tumor cells in logarithmic phase of growth were collected, counted and then resuspended in 1×PBS, and the concentration of the cell suspension was adjusted to 3×10^7/mL. 1 mL syringes (4 gauge needle) were used to inoculate the tumor cells to the right back of the nude mice subcutaneously, 3×10^6/0.1 mL/mice. […]
as §2, §3

[4] = test system: human gastric cancer NCI-N87 transplanted tumor; assay: Inhibitory effect on in vivo tumor growth, human gastric cancer NCI-N87 cell strain transplanted tumor model in nude mice; conditions: 40 mg·kg^−1 (as active agent) IV Q4D × 3, n=5
Experimental: NCI-N87 cells in logarithmic phase of growth were collected. […] Cell suspension was aspirated with a 1 mL syringe, and injected subcutaneously to the anterior right armpit of the nude mice. Each animal was inoculated with 100 μL (5×10^6 cells/animal), and the NCI-N87 transplanted tumor model in nude mice was established. Animal status and the condition of tumor growth were observed regularly after inoculation, an electronic vernier caliper was used to measure the tumor diameters, the data was directly input to an Excel spreadsheet, and the tumor volumes were calculated. […] The tumor diameters were measured twice a week after the initiation of the experiment, the tumor volumes were calculated, and the body weights of the animals were weighed and recorded at the same time.
The calculation formula of the tumor volume (TV) was as follows: TV(mm^3)=l×w^2/2 wherein l represented the long diameter of a tumor (mm), and w represented the short diameter of a tumor (mm).
as §1
After the experiment was ended, the animals were euthanized (CO2) after the body weights were weighed and the tumor diameters were measured. The tumor tissues were excised and weighed, and the tumor weight inhibition rates were calculated. […]

[5] = test system: orthotopic U87MG brain glioma; format: in vivo, human; conditions: orthotopic U87MG brain glioma in nude mice; 40 mg·kg^−1 (as active agent) IV Q4D × 3; n=5
Experimental: U87MG cells in logarithmic phase of growth were collected. […] The cells were charged into a 50 mL centrifuge tube after being pipetted with a pipettor to make them evenly dispersed, and the centrifuge tube was placed in an ice box. Cell suspension was aspirated with a 1 mL syringe, 1 μL of human brain glioma cell (U87MG cells) cultured in vitro was inoculated (1×10^5 cells/animal) using microinjection method via the guidance of a stereotactic apparatus for animals, the orthotopic U87MG brain glioma model was established, and animal status was observed periodically after inoculation.
The first administration was initiated on the day of grouping, the experiment was ended after 21 days, and the volumes of administration were all 10 mL·kg^−1. Group 1 was a solvent control group, and was given blank solvent by intravenous injection via tail once every 4 days for a total of 3 times (Q4D×3).
The first administration was initiated on the day of grouping, the experiment was ended after 21 days, and the volumes of administration were all 10 mL·kg^−1.
Groups with 10-hydroxycamptothecin as the active agent (Groups 14 to 18). The first administration was initiated on the day of grouping, the experiment was ended after 21 days, and the volumes of administration were all 10 mL·kg^−1.
Groups with rubitecan as the active agent (Groups 19 to 23). […]
The survival time of the animals were recorded.

**Q.** How did the “Relative tumor proliferation rate (% T/C)” value [1] turn out when CCc1c2c(nc3ccc(OC(=O)N4CCC(N5CCCCC5)CC4)cc13)-c1cc3c(c(=O)n1C2)COC(=O)[C@]3(O)CC [irinotecan] was run?
**A.** 69%

**Q.** What about the “Relative tumor proliferation rate (% T/C)” value [2] of the same compound?
**A.** 44.8%^

**Q.** And the “Relative tumor proliferation rate (% T/C)” value [3]?
**A.** 59.4%

**Q.** And the “Average relative tumor proliferation rate (% T/C)” value [4]?
**A.** 63.2%

**Q.** And the Median survival time [5]?
**A.** 27 days
